{
  "source": "patent US20030113330A1",
  "about": "“Methods for treating pulmonary fibrosis” (priority 1999, published 2003)",
  "molecules": {"B1": {"name": "angiotensinogen: purified angiotensinogen, serum globulin precursor of angiotensin I (protein, UniProt P01019 25-476, looked up)", "Angiotensinogen": "DRVYIHPFHLVIHNESTCEQLAKANAGKPKDPTFIPAPIQAKTSPVDEKALQDQLVLVAAKLDTEDKLRAAMVGMLANFLGFRIYGMHSELWGVVHGATVLSPTAVFGTLASLYLGALDHTADRLQAILGVPWKDKNCTSRLDAHKVLSALQAVQGLLVAQGRADSQAQLLLSTVVGVFTAPGLHLKQPFVQGLALYTPVVLPRSLDFTELDVAAEKIDRFMQAVTGWKTGCSLMGASVDSTLAFNTYVHFQGKMKGFSLLAEPQEFWVDNSTSVSVPMLSGMGTFQHWSDIQDNFSVTQVPFTESACLLLIQPHYASDLDKVEGLTFQQNSLNWMKKLSPRTIHLTMPQLVLQGSYDLQDLLAQAELPAILHTELNLQKLSNDRIRVGEVLNSIFFELEADEREPTESTQQLNKPEVLEVTLNRPFLFAVYDQSATALHFLGRVANPLSTA"}},
  "key": {"primary rat AEC [1]": {"tested_on": "primary rat AEC", "assay": "Fas ligand-induced apoptosis of primary rat alveolar epithelial cells", "format": "cell-based", "conditions": "captopril, lisinopril 500 ng/ml; caspase inhibitors 60 uM", "protocol": "Lung Cell Isolation and Detection of Apoptosis In Vitro. Primary alveolar epithelial cells (AEC) were isolated from adult male Wistar rats as described above. The primary cells were studied at day two of culture, a time at which they are type II cell-like by accepted morphologic and biochemical criteria, see Paine et al., Am. J. Physiol. […] All cells were seeded in 24-well or 6-well chambers, and all experiments were conducted at subconfluent densities of 80-90% in serum-free Ham's F12 medium. Test reagents were diluted with Ham's F12 medium and were applied for 20 hours at 37° C. in a 5% CO2 incubator.\nDetection of apoptotic cells with propidium iodide (PI) was conducted as described above, following digestion of ethanol-fixed cells with DNAse-free RNAse in PBS containing 5 ug/ml PI.\nExpression of FAS by alveolar epithelial cells is observed during bleomycin-induced fibrogenesis in mice. See Hagimoto, et al., Am. J. Respir. Cell Mol. Biol. 16:91-101 (1997). […] Apoptosis was detected by quantitation of fragmented nuclei (see above).\nCell Culture and Detection of Apoptosis. The human lung adenocarcinoma cell line A549 was obtained from American Type Culture Collection and cultured in Ham's F12 medium supplemented with 10% fetal bovine serum (FBS). Primary alveolar epithelial cells were isolated from adult male Wistar rats as described earlier (Uhal, B. D., I. Joshi, A. True, S. Mundle, A. Raza, A. Pardo and M. Selman. Fibroblasts isolated after fibrotic lung injury induce apoptosis of alveolar epithelial cells in vitro. Am. J. Physiol. 269:L819-L828, 1995); Wang, R., A. Zagariya, 0. Ibarra-Sunga, C. […] Am. J. Physiol. 276:L885-L889 (1999)). […] All cells were seeded in 24-well or 6-well chambers, and all experiments were conducted at subconfluent densities of 80-90% in serum-free Ham's F12 medium. Test reagents were diluted with serum-free Ham's F12 medium and were applied under serum-free conditions for 20 hours at 37C. in a 5% CO2 incubator. Detection of apoptotic cells with propidium iodide (PI) was conducted as described above Am. J. Physiol. 275:L1013-1017 (1998); Uhal et al., following digestion of ethanol-fixed cells with DNAse-free RNAse in PBS containing 5 μg/ml PI. In all assays, detached cells were retained by centrifugation of the culture vessels during fixation with 70% ethanol, or by retention of culture media and recovery by centrifugation before assay.\nApoptosis was detected by nuclear fragmentation as described above."}, "primary rat AEC [2]": {"tested_on": "primary rat AEC", "assay": "Angiotensin II-induced apoptosis in primary rat AEC (nuclear fragmentation, PI)", "format": "cell-based", "conditions": "ANGII 5.0 uM; saralasin 50 ug/ml, lisinopril 500 ng/ml", "from_the_text": "Cell Culture. The human lung adenocarcinoma cell line A549 was obtained from American Type Culture Collection and cultured in Ham's F12 medium supplemented with 10% fetal bovine serum (FBS). Primary alveolar epithelial cells were isolated from adult male Wistar rats as described in Uhal et al., Am. J. Physiol. Suppl. (Oct.) 261:110-117 (1991) and Uhal et al., Am. J. Physiol. 269:L819-L828 (1995). The primary cells were studied at day two of culture, a time at which they are type II cell-like by accepted morphologic and biochemical criteria, see Uhal, Am. J. Physiol. 272:L1031-L1045 (1997). […] J. Physiol. Suppl. (October) 261:110-117 (1991). All cells were seeded in 24-well or 6-well chambers, and all experiments were conducted at subconfluent densities of 80-90% in serum-free Ham's F12 medium. Test reagents were diluted with Ham's F12 medium and were applied for 20 h at 37° C. in a 5% CO2 incubator.\nDetection of Apoptosis. Detection of apoptotic cells with propidium iodide (PI) was conducted as described in Uhal, et al., Am. J. Physiol. 275:L1013-1017 (1998) following digestion of ethanol-fixed cells with DNAse-free RNAse in PBS containing 5 ug/ml PI. Assay of Annexin V binding by flow cytometry was performed essentially as described for human lung fibroblasts in Uhal, et al., Am. J. Physiol. 275:L998-L1005 (1998) after trypsinization of cells from culture vessels. Assay of Caspase-3 activity was performed on viable suspension cultures as reported in Uhal, et al., Am. J. Physiol. 275:L1013-1017 (1998). In all assays, detached cells were retained by centrifugation of the culture vessels during fixation with 70% ethanol, or by retention of culture media and recovery by centrifugation before assay.\n(§1) For microscopy, cells were cultured on glass cover slips, incubated with test reagents and fixed with 70% ethanol. The fixed cells were immunolabeled overnight at 4° C. with monoclonal antibodies to cytokeratins 7 and 19 (Chemicon International, Temecula, Calif.), and then for one hour at 37° C. with anti-mouse IgG-rhodamine and DNAse-free RNAse (Boehringer Mannheim, Indianapolis, Ind.) The cover slips were then rinsed in distilled water three times and mounted under Fluoromount Solution (Southern Biotechnology Associates, Birmingham, Ala.) containing 5 ug/ml propidium iodide. Photomicroscopy was performed as described in Uhal, et al., Am. J. Physiol. 275:L1013-1017 (1998).\nApoptosis in alveolar epithelial cells was quantitated by fluorescence detection of chromatin condensation and nuclear fragmentation in alcohol-fixed cells stained with propidium iodide. See Uhal, et al., Am. J. Physiol. 275:L1013-1017 (1998). […] After 20 h, the culture vessel was centrifuged to retain detached cells and labeled with anticytokeratin antibodies and propidium iodide. […] Double labeling with PI and monoclonal antibodies to cytokeratins 7 and 19 identified cells with both apoptotic nuclear morphology and positive anticytokeratin immunoreactivity."}, "primary rat AECs": {"tested_on": "primary rat AECs", "assay": "TNF-α-induced apoptosis of primary rat AECs", "format": "cell-based", "conditions": "purified TNF-α"}, "A549 cells [3]": {"tested_on": "A549 cells", "protocol": "(§2) The human lung adenocarcinoma cell line A549 (ATCC) was cultured in Ham's F12 medium supplemented with 10% fetal bovine serum (FBS). Primary alveolar epithelial cells were isolated from adult male Wistar rats. The primary cells were studied at day two of culture, a time at which they are type II cell-like by accepted morphologic and biochemical criteria. […] All cells were seeded in 24-well or 6-well chambers, and all experiments were conducted at subconfluent densities of 80-90% in serum-free Ham's F12 medium. Test reagents were diluted with Ham's F12 medium and were applied for 20 hours at 37C. in a 5% CO2 incubator.\n(§3) Apoptotic cells were detected using propidium iodide (PI) following digestion of ethanol-fixed cells with DNAse-free RNAse in PBS containing 5 ug/ml PI. […] In replicate culture vessels, necrosis was detected as the loss of exclusion of PI after application of the vital dye directly to the cell culture medium at 5 ug/ml final concentration. Red fluorescent (PI-POSITIVE) cells (>570 nm) were scored over the subsequent hour as a percentage of the total cells in any given field. A minimum of 4 separate fields were scored in each of three separate culture vessels per experiment condition; all experiments were performed at least twice and the data were compiled. Although all necrotic cells are PI-positive, some apoptotic cells may also take up the dye but these comprise a minor fraction of the total dead cell population.\n(§4) In all assays, detached cells were retained by centrifugation of the culture vessel at 300×g for 10 minutes with a centrifuge rotor designed for culture plates. For detection of necrosis (dye exclusion of PI), the PI was added directly to the cell culture medium immediately before centrifugation of the culture vessel. For detection of apoptosis, ethanol was added directly to the cell culture medium to a final concentration of 70% immediately before the centrifugation. Afterward, the ethanol was carefully removed and the total cell population (attached plus sedimented detached cells) were stained with PI as described above."}, "primary rat AEC [4]": {"tested_on": "primary rat AEC", "protocol": "as §2, §3, §4"}, "human A549 cells": {"tested_on": "human A549 cells", "format": "cell-based", "conditions": "A549, 20 h", "description": "(§5) The human lung adenocarcinoma cell line A549 (ATCC) was cultured in Ham's F12 medium supplemented with 10% fetal bovine serum (FBS). Primary alveolar epithelial cells were isolated from adult male Wistar rats. The primary cells were studied at day two of culture, a time at which they are type II cell-like by accepted morphologic and biochemical criteria. All primary cell preparations were of better than 90% purity assessed by acridine orange staining. All cells were seeded in 24-well or 6-well chambers, and all experiments were conducted at subconfluent densities of 80-90% in serum-free Ham's F12 medium. Test reagents were diluted with Ham's F12 medium and were applied for 20 hours at 37C. in a 5% CO2 incubator.\nApoptotic cells were detected using propidium iodide (PI) following digestion of ethanol-fixed cells with DNAse-free RNAse in PBS containing 5 ug/ml PI. […] In replicate culture vessels, necrosis was detected as the loss of exclusion of PI after application of the vital dye directly to the cell culture medium at 5 ug/ml final concentration. Red fluorescent (PI-POSITIVE) cells (>570 nm) were scored over the subsequent hour as a percentage of the total cells in any given field. A minimum of 4 separate fields were scored in each of three separate culture vessels per experiment condition; all experiments were performed at least twice and the data were compiled. […]"}, "A549 cells [5]": {"tested_on": "A549 cells", "assay": "Amiodarone-induced net cell loss in A549 cultures", "format": "cell-based, human", "conditions": "20 hours exposure", "description": "(§6) Primary alveolar epithelial cells were isolated from adult male Wistar rats. The primary cells were studied at day two of culture, a time at which they are type II cell-like by accepted morphologic and biochemical criteria. All primary cell preparations were of better than 90% purity assessed by acridine orange staining. All cells were seeded in 24-well or 6-well chambers, and all experiments were conducted at subconfluent densities of 80-90% in serum-free Ham's F12 medium. Test reagents were diluted with Ham's F12 medium and were applied for 20 hours at 37C. in a 5% CO2 incubator.\n(§7) Importantly, unattached cells were recovered and included in the analyses, and thus the data represent true loss of cells rather than simple detachment from the substratum."}, "[6]": {"conditions": "AIPT; cited from earlier work"}, "[7]": {"tested_on": "primary cultures of rat AEC", "format": "cell-based", "conditions": "primary rat AEC, 20 h", "description": "as §5"}, "primary rat AEC [8]": {"tested_on": "primary rat AEC", "assay": "Amiodarone-induced net cell loss in primary rat AEC cultures", "format": "cell-based", "conditions": "20 hours exposure", "description": "as §6, §7"}, "primary rat AEC [9]": {"tested_on": "primary rat AEC", "assay": "Angiotensinogen-induced apoptosis in primary rat AEC", "format": "cell-based", "conditions": "5 uM", "protocol": "Cell Culture. […] J. Physiol. Suppl. […] J. Physiol. […] J. Physiol. […] J. Physiol. Suppl.\nDetection of Apoptosis. […] J. Physiol. […] Assay of Annexin V binding by flow cytometry was performed essentially as described for human lung fibroblasts in Uhal, et al., Am. J. Physiol. […] Assay of Caspase-3 activity was performed on viable suspension cultures as reported in Uhal, et al., Am. J. Physiol.\nas §1, with “Physiol.” for “Physiol. 275:L1013-1017 (1998).”"}, "A549 cell line": {"tested_on": "A549 cell line", "assay": "Angiotensinogen-induced apoptosis in A549 cells", "format": "cell-based, human", "protocol": "Cell Culture. […] J. Physiol. Suppl. (Oct.) 261:110-117 (1991) and Uhal et al., Am. J. Physiol. 269:L819-L828 (1995). […] J. Physiol. 272:L1031-L1045 (1997). […] J. Physiol. Suppl. (October) 261:110-117 (1991).\nDetection of Apoptosis. […] J. Physiol. […] Assay of Annexin V binding by flow cytometry was performed essentially as described for human lung fibroblasts in Uhal, et al., Am. J. Physiol. 275:L998-L1005 (1998) after trypsinization of cells from culture vessels. Assay of Caspase-3 activity was performed on viable suspension cultures as reported in Uhal, et al., Am. J. Physiol. 275:L1013-1017 (1998).\nas §1"}},
  "note": "Where two headings read alike, the source gives them in different places.",
  "data": [
    {"molecule": "CCCCc1nc(Cl)c(CO)n1Cc1ccc(-c2ccccc2-c2nn[nH]n2)cc1", "note": "[Losartan, losartan]", "values": [
      {"measurement": "inhibition of Fas ligand-induced apoptosis of primary rat AEC (words)", "setting": "primary rat AEC [1]", "value": "abrogated"},
      {"measurement": "inhibition of ANGII-induced apoptosis of primary rat AEC", "setting": "primary rat AEC [2]", "value": "abrogated"},
      {"measurement": "inhibition of TNF-α-induced apoptosis", "setting": "primary rat AECs", "value": "abrogated"},
      {"measurement": "inhibition of amiodarone-induced apoptosis", "setting": "A549 cells [3]; captopril 500 ng/ml, saralasin 50 ug/ml, Losartan 5 pg/ml", "value": "completely blocked"},
      {"measurement": "inhibition of amiodarone-induced apoptosis", "setting": "primary rat AEC [4]; captopril 500 ng/ml, saralasin 50 ug/ml, Losartan 5 pg/ml, amiodarone 2.5 ug/ml for chelerythrine, orthovanadate", "value": "completely blocked"}
    ]},
    {"molecule": "CCCCc1oc2ccccc2c1C(=O)c1cc(I)c(OCCN(CC)CC)c(I)c1", "note": "[amiodarone]", "values": [
      {"measurement": "concentration at which necrosis / significant cell death begins", "setting": "human A549 cells", "value": 10000, "unit": "ng/mL"},
      {"measurement": "effect on total cell number", "setting": "A549 cells [5]", "value": "significantly decreased"},
      {"measurement": "estimated mortality of affected patients", "setting": "[6]", "value": "5 to 10", "unit": "%"},
      {"measurement": "concentration at which significant cell death / toxicity begins", "setting": "[7]", "value": 2500, "unit": "ng/mL"},
      {"measurement": "concentration at which significant cell death / toxicity begins", "setting": "[7]; listed as AM", "value": 1000, "unit": "ng/mL"},
      {"measurement": "effect on total cell number", "setting": "primary rat AEC [8]", "value": "significantly decreased"},
      {"measurement": "maximum increase in apoptotic cells", "setting": "A549 cells [3]; 10 ug/ml AM, 5 ug/ml DES", "value": 10, "unit": "fold"},
      {"measurement": "concentration at which apoptosis begins", "setting": "A549 cells [3]; A549", "value": 10000, "unit": "ng/mL"},
      {"measurement": "induction of apoptosis", "setting": "primary rat AEC [4]; 15 ug/ml AM, 5 ug/ml DES", "value": 16, "unit": "fold"},
      {"measurement": "concentration at which significant apoptosis begins", "setting": "primary rat AEC [4]; primary AEC", "value": 2500, "unit": "ng/mL"}
    ]},
    {"molecule": "B1", "values": [
      {"measurement": "induction of apoptosis by angiotensinogen", "setting": "primary rat AEC [9]", "value": "induced apoptosis with the same potency as did ANGII"},
      {"measurement": "induction of apoptosis by angiotensinogen", "setting": "A549 cell line", "value": "not capable of inducing apoptosis"}
    ]}
  ]
}
